Data as given in paper doi:10.1101/2025.05.30.657074, “A covalent recognition strategy enables conspecific mate identification” (bioRxiv, 2025).

Legend:
BmOR1/Orco = BmOR1/Orco (Bombyx mori, UniProt Q5WA61); test: GCaMP6 calcium flux assay, wild-type BmOR1/Orco; format: cell-based
Excerpt: (§1) The first insect pheromone system characterized at the molecular level is that of Bombyx mori, a moth long known to navigate towards its mate guided solely by pheromone cues with impressive navigation accuracy. Two PR/Orco complexes, BmOR1/BmOrco and BmOR3/BmOrco, have been linked to the behavioral responses to pheromones in B. mori (Figure 1A). The conspecific pheromone, bombykol, is detected through BmOR1/Orco and leads to sexual attraction. The heterospecific pheromone, bombykal, is sensed through BmOR3/Orco, and leads to suppression of mating behavior. We first characterized the extent to which both PR/Orco complexes are selective towards their cognate ligands. We used a previously established calcium flux functional assay where we co-transfected HEK293 cells with either BmOR1 or BmOR3, along with the coreceptor, BmOrco (here on referred to as Orco), and the fluorescent calcium reporter, GCaMP6 (Figure 1C). In this assay, ligand-activation of the heteromeric ion channel complexes by addition of either bombykol or bombykal leads to calcium influx, read out as GCaMP6 fluorescence changes that can be monitored in real-time and dose-dependent manner using a fluorescence plate reader. […] But we also found both PR/Orco complexes to be somewhat promiscuous: both complexes are activated by their non-cognate pheromones (bombykal for BmOR1/Orco and bombykol for BmOR3/Orco) with a response that is ~10 fold smaller than their cognate pheromones. […] Instead, two complexes with reciprocal specificities enable an unequivocal response to bombykal and bombykol across all concentrations, ensuring the behavioral accuracy needed for mate selection.
(§2) The assay was performed similarly to method descriptions in previous studies.
(§3) All DNA constructs used in this assay were cloned into a modified pME18 vector that contains a SV40 promotor.
(§4) Each transfection condition (per well) contained a total of 300 ng of plasmids in 1:1:1 ratio of the GCaMP6, Orco, and the corresponding OR plasmid that was diluted in 4.8 uL of OptiMEM (Gibco) along with 0.1 uL of P3000. The mixture was incubated for 5 minutes and then further incubated for 20 minutes after being mixed with Lipofectamine 3000 (Invitrogen) diluted in OptiMEM. This mixture was scaled accordingly to batch transfect 50-100 wells per construct per plate.
(§5) HEK293T cells were maintained at 37°C with 5% carbon dioxide and grown in high glucose DMEM enhanced with 10% FBS and 1% GlutaMAX (Gibco). Cells were detached with TrypLE Express Enzyme and resuspended in FluoroBrite DMEM (Gibco) with 10% FBS and 1% GlutaMAX (Gibco) to a concentration of 5 × 10^5 cells/ml. Cells were combined with each transfection condition and added to 2x16 wells of a 384-well plate (Grenier CELLSTAR). Cells were kept at 37°C for 18-20 hours before being used for fluorescence plate reading.
(§6) Odorant plates were prepared using D300e (Hewlett Packard), a digital, non-contact dispenser. Briefly, stock solutions of bombykol and bombykal were prepared in DMSO and plated onto 384-plates (Greiner, Catalog #784201) in a titrating volume to obtain a concentration series ranging between 316 nM and 100 mM with a final volume of 0.2 µL.
(§7) The odorant plates were kept at −20 °C until usage.
(§8) On the day of the GCaMP6 assay, Bravo (Agilent), a versatile liquid handler was used to prepare both the odorant plate and the assay plate (transfected cell plate) prior to the fluorescence readout using the FDSS/µcell kinetic plate Imager (Hamamatsu, C13299).
(§9) For the odorant plate, the DMSO dissolved stock solutions were diluted in 19.8 µL of Reading buffer (20 mM HEPES/NaOH (pH 7.4), 1× HBSS (Gibco), 3 mM Na2CO3, 1 mM MgSO4, and 5 mM CaCl2) to give a final concentration ranging from 3.16 nM to 1 mM with 1% DMSO. For the cell plate, the FluoroBrite DMEM (Gibco) was exchanged out with the […]
(§10) The kinetics of the fluorescence change upon odorant addition were measured using the FDSS/µcell kinetic plate Imager (Hamamatsu, C13299). […]

BmOR3/Orco = BmOR3/Orco (Bombyx mori, UniProt Q5FBE0); test: GCaMP6 calcium flux assay, wild-type BmOR3/Orco; format: cell-based
Excerpt: as §1, §2, §3, §4, §5, §6, §7, §8, §9, §10

OR1_S60A = OR1_S60A (Bombyx mori, UniProt Q5WA61, S60A); test: GCaMP6 calcium flux assay, BmOR1/Orco mutant S60A; format: cell-based
Excerpt: (§11) The first insect pheromone system characterized at the molecular level is that of Bombyx mori, a moth long known to navigate towards its mate guided solely by pheromone cues with impressive navigation accuracy. Two PR/Orco complexes, BmOR1/BmOrco and BmOR3/BmOrco, have been linked to the behavioral responses to pheromones in B. mori (Figure 1A). The conspecific pheromone, bombykol, is detected through BmOR1/Orco and leads to sexual attraction. The heterospecific pheromone, bombykal, is sensed through BmOR3/Orco, and leads to suppression of mating behavior. We first characterized the extent to which both PR/Orco complexes are selective towards their cognate ligands. We used a previously established calcium flux functional assay where we co-transfected HEK293 cells with either BmOR1 or BmOR3, along with the coreceptor, BmOrco (here on referred to as Orco), and the fluorescent calcium reporter, GCaMP6 (Figure 1C). In this assay, ligand-activation of the heteromeric ion channel complexes by addition of either bombykol or bombykal leads to calcium influx, read out as GCaMP6 fluorescence changes that can be monitored in real-time and dose-dependent manner using a fluorescence plate reader. […]
(§12) HEK293T cells were maintained at 37°C with 5% carbon dioxide and grown in high glucose DMEM enhanced with 10% FBS and 1% GlutaMAX (Gibco). […] Cells were kept at 37°C for 18-20 hours before being used for fluorescence plate reading. […]
as §8
(§13) For the odorant plate, the DMSO dissolved stock solutions were diluted in 19.8 µL of Reading buffer (20 mM HEPES/NaOH (pH 7.4), 1× HBSS (Gibco), 3 mM Na2CO3, 1 mM MgSO4, and 5 mM CaCl2) to give a final concentration ranging from 3.16 nM to 1 mM with 1% DMSO. […]
as §10

OR1_N93A = OR1_N93A (Bombyx mori, UniProt Q5WA61, N93A); test: GCaMP6 calcium flux assay, BmOR1/Orco mutant N93A; format: cell-based
Excerpt: as §11, §12, §8, §13, §10

OR1_N93T = OR1_N93T (Bombyx mori, UniProt Q5WA61, N93T); test: GCaMP6 calcium flux assay, BmOR1/Orco mutant N93T; format: cell-based
Excerpt: as §11, §12, §8, §13, §10

OR1_L340A = OR1_L340A (Bombyx mori, UniProt Q5WA61, L340A); test: GCaMP6 calcium flux assay, BmOR1/Orco mutant L340A; format: cell-based
Excerpt: as §11, §12, §8, §13, §10

OR1_L342A = OR1_L342A (Bombyx mori, UniProt Q5WA61, L342A); test: GCaMP6 calcium flux assay, BmOR1/Orco mutant L342A; format: cell-based
Excerpt: as §11, §12, §8, §13, §10

OR1_I343A = test: GCaMP6 calcium flux assay, BmOR1/Orco mutant I343A; format: cell-based, Bombyx mori
Excerpt: as §11, with “We used a previously established calcium flux functional assay where we co-transfected HEK293 cells with either BmOR1 or BmOR3, along with the coreceptor, BmOrco (here on referred to as Orco), and the fluorescent calcium reporter, GCaMP6 (Figure 1C).” left out
as §12, §10

OR1_M344A = OR1_M344A (Bombyx mori, UniProt Q5WA61, M344A); test: GCaMP6 calcium flux assay, BmOR1/Orco mutant M344A; format: cell-based
Excerpt: as §11, §12, §8, §13, §10

OR1_F161A = test: GCaMP6 calcium flux assay, BmOR1/Orco mutant F161A; format: cell-based, Bombyx mori
Excerpt: as §11, with “We used a previously established calcium flux functional assay where we co-transfected HEK293 cells with either BmOR1 or BmOR3, along with the coreceptor, BmOrco (here on referred to as Orco), and the fluorescent calcium reporter, GCaMP6 (Figure 1C).” left out
as §12, §10

OR3_K58A = OR3_K58A (Bombyx mori, UniProt Q5FBE0, K58A); test: GCaMP6 calcium flux assay, BmOR3/Orco mutant K58A; format: cell-based
Excerpt: as §1, §2, §3, §4, §5, §6, §7, §8, §9, §10

OR3_K58S = OR3_K58S (Bombyx mori, UniProt Q5FBE0, K58S); test: GCaMP6 calcium flux assay, BmOR3/Orco mutant K58S; format: cell-based
Excerpt: as §1, §2, §3, §4, §5, §6, §7, §8, §9, §10

OR3_K58Q = OR3_K58Q (Bombyx mori, UniProt Q5FBE0, K58Q); test: GCaMP6 calcium flux assay, BmOR3/Orco mutant K58Q; format: cell-based
Excerpt: as §1, §2, §3, §4, §5, §6, §7, §8, §9, §10

OR3_T91A = OR3_T91A (Bombyx mori, UniProt Q5FBE0, T91A); test: GCaMP6 calcium flux assay, BmOR3/Orco mutant T91A; format: cell-based
Excerpt: as §11, §12, §8, §13, §10

OR3_T91N = OR3_T91N (Bombyx mori, UniProt Q5FBE0, T91N); test: GCaMP6 calcium flux assay, BmOR3/Orco mutant T91N; format: cell-based
Excerpt: as §11, §12, §8, §13, §10

B. mori male moths = system: B. mori male moths; parameters: method as in PMID 24744736, PMID 22836825; settings: conspecific male moths; cited from earlier work

Chain of OR1_L340A (Q5WA61 entry or part of it L340A): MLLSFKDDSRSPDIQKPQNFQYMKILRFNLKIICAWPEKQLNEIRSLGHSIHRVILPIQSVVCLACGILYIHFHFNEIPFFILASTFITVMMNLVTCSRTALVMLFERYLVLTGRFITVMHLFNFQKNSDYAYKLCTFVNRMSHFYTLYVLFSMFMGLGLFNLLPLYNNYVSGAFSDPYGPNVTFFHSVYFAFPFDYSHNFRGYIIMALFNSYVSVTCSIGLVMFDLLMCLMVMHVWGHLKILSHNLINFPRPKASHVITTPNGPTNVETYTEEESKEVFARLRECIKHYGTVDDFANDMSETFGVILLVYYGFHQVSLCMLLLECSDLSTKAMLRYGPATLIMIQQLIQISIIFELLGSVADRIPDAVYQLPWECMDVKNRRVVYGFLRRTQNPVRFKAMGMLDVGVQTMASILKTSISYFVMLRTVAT
Chain of OR1_L340A (Q7YT34 entry or part of it, stated change not applied, further chain): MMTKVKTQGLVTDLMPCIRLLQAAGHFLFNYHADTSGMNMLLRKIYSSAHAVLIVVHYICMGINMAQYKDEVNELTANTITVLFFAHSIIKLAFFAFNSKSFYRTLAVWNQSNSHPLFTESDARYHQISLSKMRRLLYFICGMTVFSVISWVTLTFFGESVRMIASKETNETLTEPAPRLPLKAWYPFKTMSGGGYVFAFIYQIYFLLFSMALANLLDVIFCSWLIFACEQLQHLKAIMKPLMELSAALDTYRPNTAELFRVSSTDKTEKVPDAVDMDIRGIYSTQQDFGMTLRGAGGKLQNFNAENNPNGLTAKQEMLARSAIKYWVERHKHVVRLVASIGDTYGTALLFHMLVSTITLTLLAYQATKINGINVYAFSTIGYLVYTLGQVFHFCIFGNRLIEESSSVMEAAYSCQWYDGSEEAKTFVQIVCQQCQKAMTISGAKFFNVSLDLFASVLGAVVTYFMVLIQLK
Chain of OR3_T91N (Q5FBE0 entry or part of it T91N): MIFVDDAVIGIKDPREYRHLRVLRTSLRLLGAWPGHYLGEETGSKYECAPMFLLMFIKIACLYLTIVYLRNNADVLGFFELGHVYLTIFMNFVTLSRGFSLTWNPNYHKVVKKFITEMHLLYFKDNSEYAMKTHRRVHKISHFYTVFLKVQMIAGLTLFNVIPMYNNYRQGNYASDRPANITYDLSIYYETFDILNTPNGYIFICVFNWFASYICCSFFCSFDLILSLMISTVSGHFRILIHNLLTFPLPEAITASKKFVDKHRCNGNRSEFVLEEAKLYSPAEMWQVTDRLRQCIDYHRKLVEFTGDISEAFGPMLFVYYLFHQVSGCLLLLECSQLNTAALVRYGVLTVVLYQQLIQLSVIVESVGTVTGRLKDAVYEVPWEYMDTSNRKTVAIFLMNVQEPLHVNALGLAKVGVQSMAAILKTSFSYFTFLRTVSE
Chain of OR3_T91N (Q7YT34 entry or part of it, stated change not applied, further chain): as the sequence (Q7YT34 entry or part of it, stated change not applied, further chain) above
Chain of OR3_K58A (Q5FBE0 entry or part of it K58A): as the sequence (Q5FBE0 entry or part of it T91N) above, with K58A, N91T counted along it
Chain of OR3_K58A (Q7YT34 entry or part of it, stated change not applied, further chain): as the sequence (Q7YT34 entry or part of it, stated change not applied, further chain) above
Chain of OR1_M344A (Q5WA61 entry or part of it M344A): as the sequence (Q5WA61 entry or part of it L340A) above, with A340L, M344A counted along it
Chain of OR1_M344A (Q7YT34 entry or part of it, stated change not applied, further chain): as the sequence (Q7YT34 entry or part of it, stated change not applied, further chain) above
Chain of BmOR3/Orco (Q5FBE0 entry or part of it): as the sequence (Q5FBE0 entry or part of it T91N) above, with N91T counted along it
Chain of BmOR3/Orco (Q7YT34 entry or part of it, further chain): as the sequence (Q7YT34 entry or part of it, stated change not applied, further chain) above
Chain of OR3_K58S (Q5FBE0 entry or part of it K58S): as the sequence (Q5FBE0 entry or part of it T91N) above, with K58S, N91T counted along it
Chain of OR3_K58S (Q7YT34 entry or part of it, stated change not applied, further chain): as the sequence (Q7YT34 entry or part of it, stated change not applied, further chain) above
Chain of OR1_N93T (Q5WA61 entry or part of it N93T): as the sequence (Q5WA61 entry or part of it L340A) above, with N93T, A340L counted along it
Chain of OR1_N93T (Q7YT34 entry or part of it, stated change not applied, further chain): as the sequence (Q7YT34 entry or part of it, stated change not applied, further chain) above
Chain of OR1_S60A (Q7YT34 entry or part of it, stated change not applied): as the sequence (Q7YT34 entry or part of it, stated change not applied, further chain) above
Chain of OR1_S60A (Q5WA61 entry or part of it S60A): as the sequence (Q5WA61 entry or part of it L340A) above, with S60A, A340L counted along it
Chain of BmOR1/Orco (Q7YT34 entry or part of it): as the sequence (Q7YT34 entry or part of it, stated change not applied, further chain) above
Chain of BmOR1/Orco (Q5WA61 entry or part of it): as the sequence (Q5WA61 entry or part of it L340A) above, with A340L counted along it
Chain of OR3_T91A (Q7YT34 entry or part of it, stated change not applied): as the sequence (Q7YT34 entry or part of it, stated change not applied, further chain) above
Chain of OR3_T91A (Q5FBE0 entry or part of it T91A): as the sequence (Q5FBE0 entry or part of it T91N) above, with N91A counted along it
Chain of OR1_L342A (Q7YT34 entry or part of it, stated change not applied): as the sequence (Q7YT34 entry or part of it, stated change not applied, further chain) above
Chain of OR1_L342A (Q5WA61 entry or part of it L342A): as the sequence (Q5WA61 entry or part of it L340A) above, with A340L, L342A counted along it
Chain of OR1_N93A (Q5WA61 entry or part of it N93A): as the sequence (Q5WA61 entry or part of it L340A) above, with N93A, A340L counted along it
Chain of OR1_N93A (Q7YT34 entry or part of it, stated change not applied, further chain): as the sequence (Q7YT34 entry or part of it, stated change not applied, further chain) above
Chain of OR3_K58Q (Q5FBE0 entry or part of it K58Q): as the sequence (Q5FBE0 entry or part of it T91N) above, with K58Q, N91T counted along it
Chain of OR3_K58Q (Q7YT34 entry or part of it, stated change not applied, further chain): as the sequence (Q7YT34 entry or part of it, stated change not applied, further chain) above

CCC/C=C\C=C\CCCCCCCCCO [Bombykol, bombykol]
EC50 (BmOR1/Orco; EC50, HEK293 cells co-transfected with BmOR1, BmOrco, GCaMP6): 270 nM
EC50 (BmOR1/Orco; Mean (-log EC50 ± SE), wild-type BmOR1/Orco): 269 nM
Hill Coefficient (n± SE) (BmOR1/Orco; wild-type BmOR1/Orco): 1.6 ± 0.1
Max (ΔF/F ± SE) (BmOR1/Orco; wild-type BmOR1/Orco, ΔF/F at highest ligand concentration): 0.98 ± 0.07 ΔF/F
EC50 (BmOR3/Orco; EC50, HEK293 cells co-transfected with BmOR3, BmOrco, GCaMP6): 1300 nM
EC50 (BmOR3/Orco; Mean (-log EC50 ± SE), wild-type BmOR3/Orco): 1290 nM
response to non-cognate pheromone, fold smaller than cognate pheromone (BmOR3/Orco; bombykol vs cognate bombykal at BmOR3/Orco): ~ 10 fold
Hill Coefficient (n± SE) (BmOR3/Orco; wild-type BmOR3/Orco): 1.0 ± 0.1
Max (ΔF/F ± SE) (BmOR3/Orco; wild-type BmOR3/Orco, ΔF/F at highest ligand concentration): 0.61 ± 0.04 ΔF/F
EC50 (OR1_S60A): 501 nM
Hill Coefficient (n± SE) (OR1_S60A; OR1_S60A): 2.1 ± 0.3
Max (ΔF/F ± SE) (OR1_S60A; OR1_S60A): 1.1 ± 0.1 ΔF/F
EC50 (OR1_N93A): 5010 nM
Hill Coefficient (n± SE) (OR1_N93A; OR1_N93A): 1.0 ± 0.3
Max (ΔF/F ± SE) (OR1_N93A; OR1_N93A): 0.63 ± 0.04 ΔF/F
EC50 (OR1_N93T): 1000 nM
Hill Coefficient (n± SE) (OR1_N93T; OR1_N93T): 2.0 ± 0.3
Max (ΔF/F ± SE) (OR1_N93T; OR1_N93T): 1.02 ± 0.08 ΔF/F
EC50 (OR1_L340A): 2000 nM
Hill Coefficient (n± SE) (OR1_L340A; OR1_L340A): 2.0 ± 0.3
Max (ΔF/F ± SE) (OR1_L340A; OR1_L340A): 0.48 ± 0.08 ΔF/F
EC50 (OR1_L342A): 794 nM
Hill Coefficient (n± SE) (OR1_L342A; OR1_L342A): 1.4 ± 0.2
Max (ΔF/F ± SE) (OR1_L342A; OR1_L342A): 0.87 ± 0.08 ΔF/F
Max (ΔF/F ± SE) (OR1_I343A): 0.14 ± 0.01 ΔF/F
EC50 (OR1_M344A): 1000 nM
Hill Coefficient (n± SE) (OR1_M344A; OR1_M344A): 1.5 ± 0.3
Max (ΔF/F ± SE) (OR1_M344A; OR1_M344A): 0.84 ± 0.03 ΔF/F
Max (ΔF/F ± SE) (OR1_F161A): 0.04 ± 0.02 ΔF/F
EC50 (OR3_K58A): 251 nM
Hill Coefficient (n± SE) (OR3_K58A; OR3_K58A): 15 ± 6
Max (ΔF/F ± SE) (OR3_K58A; OR3_K58A): 0.15 ± 0.06 ΔF/F
EC50 (OR3_K58S): 3160 nM
Hill Coefficient (n± SE) (OR3_K58S; OR3_K58S): 1.2 ± 0.3
Max (ΔF/F ± SE) (OR3_K58S; OR3_K58S): 0.42 ± 0.07 ΔF/F
EC50 (OR3_K58Q): 794 nM
Hill Coefficient (n± SE) (OR3_K58Q; OR3_K58Q): 5 ± 3
Max (ΔF/F ± SE) (OR3_K58Q; OR3_K58Q): 0.66± 0.06 ΔF/F
EC50 (OR3_T91A): 3980 nM
Hill Coefficient (n± SE) (OR3_T91A; OR3_T91A): 0.9 ± 0.3
Max (ΔF/F ± SE) (OR3_T91A; OR3_T91A): 0.31 ± 0.05 ΔF/F
EC50 (OR3_T91N): 1000 nM
Hill Coefficient (n± SE) (OR3_T91N; OR3_T91N): 1.7 ± 0.2
Max (ΔF/F ± SE) (OR3_T91N; OR3_T91N): 0.64 ± 0.07 ΔF/F
behavioral response (B. mori male moths): aggressive attraction behavior
